Results taken from patent US12435060B2, “Acylamino bridged heterocyclic compound, and composition and application thereof” (BEIJING SCITECH-MQ PHARMACEUTICALS LIMITED, priority 2019, dated 2025).

System: HT29 cells
Assay: Inhibition of cell necrosis (CCK8 method), induced programmed necrosis of HT29 cells
Format: cell-based
Conditions: Homo sapiens, HT-29; rescue from necrosis induced by TNF-α 20 ng/mL, AT-406 1 μM, Z-VAD-FMK 20 μM; 16-20 hours; CCK-8, OD 450 nm
Method in brief: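 HT29 cells in McCOY's 5A with 10% FBS were pre-treated for 30 min with compound (9 fourfold steps, 25000 to 0.38 nM final, 0.25% DMSO). Necrosis was then induced with TNF-α 20 ng/mL, AT-406 1 μM and Z-VAD-FMK 20 μM for 16-20 h. Viability was read by CCK-8 OD450, normalized between uninduced and induced wells, and IC50 was curve-fitted.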

SMILES	IC50 [nM]
COCCOCCOc1ccc(C)c(-c2ccnc(NC(=O)c3nnc(Cc4ccccc4)[nH]3)c2)c1 [Example 85, 5-benzyl-N-(4-(5-(2-(2-methoxyethoxy)ethoxy)-2-methylphenyl)pyridin-2-yl)-4H-1,2,4-triazole-3-carboxamide]	≤ 100
Cc1ccc(OCC2CCOCC2)cc1-c1cc(NC(=O)c2nnc(Cc3ccccc3F)[nH]2)ncc1F [Example 496, N-(5-fluoro-4-(2-methyl-5-((tetrahydro-2H-pyran-4-yl)methoxy)phenyl)pyridin-2-yl)-5-(2-fluorobenzyl)-4H-1,2,4-triazole-3-carboxamide]	≤ 100
CC(C)(O)CCCOc1ccc(Cl)c(-c2cc(NC(=O)c3nnc(Cc4ccccc4)[nH]3)ncn2)c1 [Example 462, 5-benzyl-N-(6-(2-chloro-5-((4-hydroxy-4-methylpentyl)oxy)phenyl)pyrimidin-4-yl)-4H-1,2,4-triazole-3-carboxamide]	≤ 100
Cn1nc(C(F)(F)F)cc1-c1ccnc(NC(=O)c2nnc(Cc3ccccc3)[nH]2)c1 [Example 28, 5-benzyl-N-(4-(1-methyl-3-(trifluoromethyl)-1H-pyrazol-5-yl)pyridin-2-yl)-4H-1,2,4-triazole-3-carboxamide]	1000 to 10000
O=C(Nc1cc(-c2cccc3c2OCO3)ccn1)c1nnc(Cc2ccccc2)[nH]1 [Example 41, N-(4-(benzo[d][1,3]dioxol-4-yl)pyridin-2-yl)-5-benzyl-4H-1,2,4-triazole-3-carboxamide]	> 10000
O=C(Nc1cc(C2CCCC2)ccn1)c1nnc(Cc2ccccc2)[nH]1 [Example 47, 5-benzyl-N-(4-cyclopentylpyridin-2-yl)-4H-1,2,4-triazole-3-carboxamide]	> 10000
Cc1ccc(S(C)(=O)=O)cc1-c1ccnc(NC(=O)c2nnc(Cc3ccccc3)[nH]2)c1 [Example 37, 5-benzyl-N-(4-(2-methyl-5-(methylsulfonyl)phenyl)pyridin-2-yl)-4H-1,2,4-triazole-3-carboxamide]	100 to 1000
CC(C)(O)CCCOc1ccc(Cl)c(-c2ccnc(NC(=O)c3nnc(Cc4cc(C5CC5)ccc4F)[nH]3)c2)c1 [Example 503, N-(4-(2-chloro-5-((4-hydroxy-4-methylpentyl)oxy)phenyl)pyridin-2-yl)-5-(5-cyclopropyl-2-fluorobenzyl)-4H-1,2,4-triazole-3-carboxamide]	1000 to 10000
CC(C)(O)CCCOc1ccc(Cl)c(-c2ccnc(NC(=O)c3nnc(Cc4cc(F)c(F)c(F)c4)[nH]3)c2)c1 [Example 354, N-(4-(2-chloro-5-((4-hydroxy-4-methylpentyl)oxy)phenyl)pyridin-2-yl)-5-(3,4,5-trifluorobenzyl)-4H-1,2,4-triazole-3-carboxamide]	100 to 1000
Cc1ccc(OCC2CCOCC2)cc1-c1cc(NC(=O)c2nnc(CC3CCCCC3)[nH]2)ncc1Cl [Example 250, N-(5-chloro-4-(2-methyl-5-((tetrahydro-2H-pyran-4-yl)methoxy)phenyl)pyridin-2-yl)-5-(cyclohexylmethyl)-4H-1,2,4-triazole-3-carboxamide]	≤ 100
Cc1ccc(OCCC2CCOCC2)cc1-c1cc(NC(=O)c2nnc(CC3CCCCC3)[nH]2)ncc1F [Example 499, N-(5-fluoro-4-(2-methyl-5-(2-(tetrahydro-2H-pyran-4-yl)ethoxy)phenyl)pyridin-2-yl)-5-(cyclohexylmethyl)-4H-1,2,4-triazole-3-carboxamide]	≤ 100
Cc1c(OCCCCO)cccc1-c1ccnc(NC(=O)c2nnc(Cc3ccccc3)[nH]2)c1 [Example 99, 5-benzyl-N-(4-(3-(4-hydroxybutoxy)-2-methylphenyl)pyridin-2-yl)-4H-1,2,4-triazole-3-carboxamide]	100 to 1000
COC(=O)C=Cc1ccc(C)c(-c2ccnc(NC(=O)c3nnc(Cc4ccccc4)[nH]3)c2)c1 [Example 480, Methyl 3-(3-(2-(5-benzyl-4H-1,2,4-triazol-3-carboxamido)pyridin-4-yl)-4-methylphenyl)acrylate]	≤ 100
CCC(O)(CC)CCCOc1ccc(F)c(-c2ccnc(NC(=O)c3nnc(Cc4ccccc4F)[nH]3)c2)c1 [Example 314, N-(4-(5-((4-ethyl-4-hydroxyhexyl)oxy)-2-fluorophenyl)pyridin-2-yl)-5-(2-fluorobenzyl)-4H-1,2,4-triazole-3-carboxamide]	100 to 1000
Cc1ccc(OCCO)cc1-c1ccnc(NC(=O)c2nnc(Cc3ccccc3)[nH]2)c1 [Example 125, 5-benzyl-N-(4-(5-(2-hydroxyethoxy)-2-methylphenyl)pyridin-2-yl)-4H-1,2,4-triazole-3-carboxamide]	100 to 1000
CC(C)(O)CCCOc1ccc(Cl)c(-c2ccnc(NC(=O)c3nnc(Cc4ccc(F)c(F)c4)[nH]3)c2)c1 [Example 339, N-(4-(2-chloro-5-((4-hydroxy-4-methylpentyl)oxy)phenyl)pyridin-2-yl)-5-(3,4-difluorobenzyl)-4H-1,2,4-triazole-3-carboxamide]	100 to 1000
Cc1ccc(OCCC2CCOCC2)cc1-c1cc(NC(=O)c2nnc(Cc3ccccc3)[nH]2)ncn1 [Example 445, 5-benzyl-N-(6-(2-methyl-5-(2-(tetrahydro-2H-pyran-4-yl)ethoxy)phenyl)pyrimidin-4-yl)-4H-1,2,4-triazole-3-carboxamide]	≤ 100

SMILES	IC50 [nM]
CCOc1nc(-c2ccnc(NC(=O)c3nnc(Cc4ccccc4)[nH]3)c2)ccc1C [Example 53, 5-benzyl-N-(6-ethoxy-5-methyl-[2,4′-bipyridin]-2′-yl)-4H-1,2,4-triazole-3-carboxamide]	> 10000
Cc1ccc(OCCCC(C)(C)O)cc1-c1cc(NC(=O)c2nnc(CC3CCCCC3)[nH]2)ncn1 [Example 440, 5-(cyclohexylmethyl)-N-(6-(5-((4-hydroxy-4-methylpentyl)oxy)-2-methylphenyl)pyrimidin-4-yl)-4H-1,2,4-triazole-3-carboxamide]	≤ 100
CC(C)(O)CCCOc1ccc(F)c(-c2cc(NC(=O)c3nnc(CC4CCCCC4)[nH]3)ncc2Cl)c1 [Example 321, N-(5-chloro-4-(2-fluoro-5-((4-hydroxy-4-methylpentyl)oxy)phenyl)pyridin-2-yl)-5-(cyclohexylmethyl)-4H-1,2,4-triazole-3-carboxamide]	100 to 1000
Cc1ccc(OCCCC(C)(C)O)cc1-c1ccnc(NC(=O)c2nnc(CC3CCCC3)o2)c1 [Example 174, 5-(cyclopentylmethyl)-N-(4-(5-((4-hydroxy-4-methylpentyl)oxy)-2-methylphenyl)pyridin-2-yl)-4H-1,3,4-oxadiazole-2-carboxamide]	100 to 1000
Cc1ccc(S(=O)(=O)CCCC(C)(C)O)cc1-c1ccnc(NC(=O)c2nnc(Cc3ccccc3)[nH]2)c1 [Example 474, 5-benzyl-N-(4-(5-((4-hydroxy-4-methylpentyl)sulfonyl)-2-methylphenyl)pyridin-2-yl)-4H-1,2,4-triazole-3-carboxamide]	100 to 1000
COCCOc1ccc(C(F)(F)F)c(-c2ccnc(NC(=O)c3nnc(Cc4ccccc4)[nH]3)c2)c1 [Example 279, 5-benzyl-N-(4-(5-(2-methoxyethoxy)-2-(trifluoromethyl)phenyl)pyridin-2-yl)-4H-1,2,4-triazole-3-carboxamide]	≤ 100
CCOCCOc1ccc(C(F)(F)F)c(-c2ccnc(NC(=O)c3nnc(CC4CCCC4)[nH]3)c2)c1 [Example 285, 5-(cyclopentylmethyl)-N-(4-(5-(2-ethoxyethoxy)-2-(trifluoromethyl)phenyl)pyridin-2-yl)-4H-1,2,4-triazole-3-carboxamide]	≤ 100
CCOc1ccccc1-c1ccnc(NC(=O)c2nnc(Cc3ccccc3)[nH]2)c1 [Example 4, 5-benzyl-N-(4-(2-ethoxyphenyl)pyridin-2-yl)-4H-1,2,4-triazole-3-carboxamide]	1000 to 10000
Cc1ccc(NC(=O)CCC(C)(C)O)cc1-c1ccnc(NC(=O)c2nnc(CC3CCCC3)[nH]2)c1 [Example 490, 5-(cyclopentylmethyl)-N-(4-(5-(4-hydroxy-4-methylvaleramido)-2-methylphenyl)pyridin-2-yl)-4H-1,2,4-triazole-3-carboxamide]	≤ 100
Cc1ccc(OCC2CCOCC2)cc1-c1cc(NC(=O)c2nnc(CC3CCCC3)[nH]2)ncn1 [Example 443, 5-(cyclopentylmethyl)-N-(6-(2-methyl-5-((tetrahydro-2H-pyran-4-yl)methoxy)phenyl)pyrimidin-4-yl)-4H-1,2,4-triazole-3-carboxamide]	≤ 100
Cc1ccc(OCCCC(C)C#N)cc1-c1ccnc(NC(=O)c2nnc(Cc3ccccc3)[nH]2)c1 (stereo not drawn) [Example 90, 5-benzyl-N-(4-(5-((4-cyanopentyl)oxy)-2-methylphenyl)pyridin-2-yl)-4H-1,2,4-triazole-3-carboxamide]	≤ 100
COc1ccc(F)cc1-c1ccnc(NC(=O)c2nnc(Cc3ccccc3)[nH]2)c1 [Example 14, 5-benzyl-N-(4-(5-fluoro-2-methoxyphenyl)pyridin-2-yl)-4H-1,2,4-triazole-3-carboxamide]	1000 to 10000
CC(C)OCCOc1ccc(Cl)c(-c2ccnc(NC(=O)c3nnc(Cc4ccccc4)[nH]3)c2)c1 [Example 387, 5-benzyl-N-(4-(2-chloro-5-(2-isopropoxyethoxy)phenyl)pyridin-2-yl)-4H-1,2,4-triazole-3-carboxamide]	≤ 100
Cc1ccc(OC2CC2)cc1-c1ccnc(NC(=O)c2nnc(Cc3ccccc3)[nH]2)c1 [Example 155, 5-benzyl-N-(4-(5-cyclopropoxy-2-methylphenyl)pyridin-2-yl)-4H-1,2,4-triazole-3-carboxamide]	100 to 1000
COc1ccc(C2CC2)cc1-c1ccnc(NC(=O)c2nnc(Cc3ccccc3)[nH]2)c1 [Example 46, 5-benzyl-N-(4-(5-cyclopropyl-2-methoxyphenyl)pyridin-2-yl)-4H-1,2,4-triazole-3-carboxamide]	1000 to 10000
COc1ccc(C)nc1-c1ccnc(NC(=O)c2nnc(Cc3ccccc3)[nH]2)c1 [Example 60, 5-benzyl-N-(3-methoxy-6-methyl-[2,4′-bipyridin]-2′-yl)-4H-1,2,4-triazole-3-carboxamide]	> 10000
